Measurements from US20160271162A1, “D-ALANINE PHOSPHORAMIDE PRONUCLEOTIDES OF 2'-METHYL 2'-FLURO GUANOSINE NUCLEOSIDE COMPOUNDS FOR THE TREATMENT OF HCV” (IDENIX PHARMACEUTICALS, LLC, priority 2013, published 2016).

How the values were obtained:
HCV genotype 1b replicon = test: HCV replicon assay (luciferase reporter); assay type: cell-based; settings: Hepatitis C virus, Huh-7-derived Zluc cells, 72 hours incubation
Method: Huh-7-derived cell line (Zluc) that harbors an HCV genotype 1b replicon and a luciferase reporter gene was grown in Dulbecco's Modified Eagle Medium (DMEM) supplemented with 10% fetal bovine serum, 2 mM GlutaMAX, 1% MEM nonessential amino acids, 100 IU/mL penicillin, 100 μg/mL streptomycin, and 0.5 mg/mL Geneticin® (G418). For dose response testing the cells were seeded in 96-well plates at 7.5×10^3 cells per well in a volume of 50 μl, and incubated at 37° C./5% CO2. Drug solutions were made up freshly in Huh-7 media as 2× stocks. Ten additional 5-fold dilutions were prepared from these stocks in DMEM without G418. At least three hours after Zluc cells were seeded, drug treatment was initiated by adding 50 μL of drug dilutions to the plates in duplicate. Final concentrations of drug ranged from 100 μM to 0.0000512 μM. […] After 72 hours of incubation, the inhibition of HCV replication was measured by quantification of photons emitted after mono-oxygenation of 5′-fluoroluciferin to oxyfluoroluciferin by firefly luciferase. […] The plates were shaken gently for 3 min at room temperature and luminescence was measured on a Victor^3 V 1420 multilabel counter (Perkin Elmer) with a 1 second read time using a 700 nm cut-off filter. The EC50 values were calculated from dose response curves from the resulting best-fit equations determined by Microsoft Excel and XLfit 5.2 software. […]

[1] = Cytotoxicity evaluation, CellTiter-Blue cell viability; assay type: cell-based; settings: human, Zluc cells (HCV replicon), CellTiter-Blue Cell Viability Assay
Method: For cytotoxicity evaluation, Zluc cells were treated with compound as described herein, and cell viability was monitored using the CellTiter-Blue Cell Viability Assay (Promega) by adding 20 μL of the assay solution to each well. The plates were then incubated at 37° C./5% CO2 for at least 3 hours. Fluorescence was detected in plates using excitation and emission wavelengths of 531 and 595 nm, respectively, in a Victor^3 V 1420 multilabel counter (Perkin Elmer) and CC50 values were determined using Microsoft Excel and XLfit 5.2 software.

[2] = Liver pharmacokinetics following a single oral dose in CD-1 mice; assay type: in vivo; settings: 2′-Me-2′-F-G TP in liver, single oral dose 10 mg/kg in PEG 200, CD-1 male mice, 4, 12 and 24 hours post dose
Method: A single oral dose of test compound at 10 mg/kg for 104a and 104b in PEG 200 (dose volume 5 mL/kg) is administered to nine CD-1 male mice. Five untreated animals are used for the collection of control plasma and liver. Terminal plasma and liver samples are collected from three animals per time point at 4, 12 and 24 hours post dose. Liver specimens are collected from all animals immediately after the incision. Freezing forceps stored in liquid nitrogen are used to freeze the liver before excision.
Liver samples are analyzed for the active species 2′-methyl-2′-fluoroguanosine triphosphate (2′-Me-2′-F-G TP) by LC-MS/MS. 2′-Me-2′-F-G TP levels are assayed by homogenizing (on ice) a known weight of mouse liver with 4× volume of 0.95 M trichloroacetic acid (TCA). Internal standard solution is added to the homogenate followed by neutralization with 20% ammonium hydroxide solution and addition of 500 μL 1% formic acid. The tissue samples are extracted by weak anion exchange solid phase extraction (SPE). Post extraction, the eluates are evaporated under nitrogen, followed by reconstitution before injection onto the LC-MS/MS system. […] The analyte is detected and quantified by tandem mass spectrometry in positive ion mode on an API4000 equipped with a Turbo Ionspray® interface. […]

| Compound | EC50 (HCV genotype 1b replicon) | CC50 at 72 h [1] | Mouse Liver TP AUC0-24 [2] |
| --- | --- | --- | --- |
| CCOc1nc(N)nc2c1ncn2C1O[C@H](CO[P@@](=O)(N[C@H](C)C(=O)OC(C)C)Oc2ccccc2)[C@@H](O)[C@@]1(C)F (stereo partly drawn) [Compound 104b] | 250 to 1000 nM | > 50000 nM | +++ (500 < +++ ≦ 2000) |
| CCOc1nc(N)nc2c1ncn2C1O[C@H](COP(=O)(N[C@H](C)C(=O)OC(C)C)Oc2ccccc2)[C@@H](O)[C@@]1(C)F (stereo partly drawn) [Compound 104a] | 250 to 1000 nM | > 50000 nM | +++ (500 < +++ ≦ 2000) |
